Patent publication US20110086759A1, “CHEMICAL COMPOUNDS” (SYNGENTA CROP PROTECTION, INC., priority 2007, published 2011)

Tests used:
Assay type in all cases: in vivo
[1] = tested on: Echinochloa crus-galli (ECHCG); assay: Post-emergence biological efficacy, glasshouse pot test; settings: 312 h, post-emergence, 1,000 g/ha, evaluated after 13 days (100=total damage; 0=no damage), read-out: Percentage damage caused to weed species, ECHCG
How it was run: (§1)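 Pot-grown weeds were sprayed 8 days after sowing with test compound in acetone/water (50:50) with 0.5% Tween 20 at 1000 or 250 g/ha. Glasshouse at 24/16° C day/night, 14 h light, 65% humidity. Damage scored 0-100 (100 = total damage) after 13 days.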

[2] = tested on: Amaranthus retoflexus (AMARE); assay: as above; settings: Amaranthus retroflexus, 312 h; post-emergence, 1,000 g/ha, evaluated after 13 days (100=total damage; 0=no damage); read-out: Percentage damage caused to weed species, AMARE
How it was run: as §1

[3] = tested on: Alopecurus myosuroides (ALOMY); assay: as above; settings: 312 h, post-emergence, 1,000 g/ha, evaluated after 13 days (100=total damage; 0=no damage), read-out: Percentage damage caused to weed species, ALOMY
How it was run: as §1

[4] = tested on: Solanum nigrum (SOLNI); assay: as above; settings: 312 h, post-emergence, 1,000 g/ha, evaluated after 13 days (100=total damage; 0=no damage), read-out: Percentage damage caused to weed species, SOLNI
How it was run: as §1

[5] = tested on: Setaria faberi (SETFA); assay: as above; settings: 312 h, post-emergence, 1,000 g/ha, evaluated after 13 days (100=total damage; 0=no damage), read-out: Percentage damage caused to weed species, SETFA
How it was run: as §1

[6] = tested on: Ipomea hederaceae (IPOHE); assay: as above; settings: Ipomoea hederacea, 312 h; post-emergence, 1,000 g/ha, evaluated after 13 days (100=total damage; 0=no damage); read-out: Percentage damage caused to weed species, IPOHE
How it was run: as §1

[7] = tested on: Echinochloa crus-galli (ECHCG); assay: Pre-emergence biological efficacy, glasshouse pot test; settings: 312 h, pre-emergence, 1,000 g/ha, evaluated after 13 days (100=total damage; 0=no damage), read-out: Percentage damage ECHCG
How it was run: (§2)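 Visual phytotoxicity (0 no damage, 100 total damage) assessed 13 d after treatment. Soil-sown pots sprayed one day post-sowing; dose 1000 or 250 g/ha; formulation in acetone/water 50:50, 0.5% Tween 20.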

[8] = tested on: Amaranthus retoflexus (AMARE); assay: as above; settings: Amaranthus retroflexus, 312 h; pre-emergence, 1,000 g/ha, evaluated after 13 days (100=total damage; 0=no damage); read-out: Percentage damage AMARE
How it was run: as §2

[9] = tested on: Alopecurus myosuroides (ALOMY); assay: as above; settings: 312 h, pre-emergence, 1,000 g/ha, evaluated after 13 days (100=total damage; 0=no damage), read-out: Percentage damage ALOMY
How it was run: as §2

[10] = tested on: Solanum nigrum (SOLNI); assay: as above; settings: 312 h, pre-emergence, 1,000 g/ha, evaluated after 13 days (100=total damage; 0=no damage), read-out: Percentage damage SOLNI
How it was run: as §2

[11] = tested on: Setaria faberi (SETFA); assay: as above; settings: 312 h, pre-emergence, 1,000 g/ha, evaluated after 13 days (100=total damage; 0=no damage), read-out: Percentage damage SETFA
How it was run: as §2

[12] = tested on: Ipomea hederaceae (IPOHE); assay: as above; settings: Ipomoea hederacea, 312 h; pre-emergence, 1,000 g/ha, evaluated after 13 days (100=total damage; 0=no damage); read-out: Percentage damage IPOHE
How it was run: as §2

COC(=O)c1nc(C2CC2)nc(NCCCn2ccnc2)c1Cl [Compound 4-250, 5-Chloro-2-cyclopropyl-4-[3-(imidazol-1-yl)propylamino]-6-methoxycarbonyl-pyrimidine]
pest or weed control at 1000 g/ha [1]: 30%
pest or weed control at 1000 g/ha [2]: 100%
pest or weed control at 1000 g/ha [3]: 0%
pest or weed control at 1000 g/ha [4]: 70%
pest or weed control at 1000 g/ha [5]: 50%
pest or weed control at 1000 g/ha [6]: 100%
pest or weed control at 1000 g/ha [7]: 0%
pest or weed control at 1000 g/ha [8]: 90%
pest or weed control at 1000 g/ha [9]: 0%
pest or weed control at 1000 g/ha [10]: 40%
pest or weed control at 1000 g/ha [11]: 0%
pest or weed control at 1000 g/ha [12]: 80%

COC(=O)c1nc(C2CC2)nc(NCCCc2cccnc2)c1Cl [Compound 4-251, 5-Chloro-2-cyclopropyl-6-methoxycarbonyl-4-[3-(pyrid-3-yl)propylamino]-pyrimidine]
pest or weed control at 1000 g/ha [1]: 40%
pest or weed control at 1000 g/ha [2]: 100%
pest or weed control at 1000 g/ha [3]: 10%
pest or weed control at 1000 g/ha [4]: 80%
pest or weed control at 1000 g/ha [5]: 50%
pest or weed control at 1000 g/ha [6]: 50%
pest or weed control at 1000 g/ha [7]: 0%
pest or weed control at 1000 g/ha [8]: 40%
pest or weed control at 1000 g/ha [9]: 0%
pest or weed control at 1000 g/ha [10]: 20%
pest or weed control at 1000 g/ha [11]: 0%
pest or weed control at 1000 g/ha [12]: 20%

COC(=O)c1nc(C2CC2)nc(NC(C)CCc2ccccc2)c1Cl (stereo not drawn) [Compound 4-252, 5-Chloro-2-cyclopropyl-6-methoxycarbonyl-4-(3-phenyl-1-methyl-propylamino)-pyrimidine]
pest or weed control at 1000 g/ha [1]: 0%
pest or weed control at 1000 g/ha [2]: 100%
pest or weed control at 1000 g/ha [3]: 10%
pest or weed control at 1000 g/ha [4]: 60%
pest or weed control at 1000 g/ha [5]: 30%
pest or weed control at 1000 g/ha [6]: 60%
pest or weed control at 1000 g/ha [7]: 0%
pest or weed control at 1000 g/ha [8]: 20%
pest or weed control at 1000 g/ha [9]: 0%
pest or weed control at 1000 g/ha [10]: 0%
pest or weed control at 1000 g/ha [11]: 0%
pest or weed control at 1000 g/ha [12]: 0%

COC(=O)c1nc(C2CC2)nc(NCCCCc2ccccc2)c1Cl [Compound 4-253, 5-Chloro-2-cyclopropyl-6-methoxycarbonyl-4-(4-phenylbutyl-amino)pyrimidine]
pest or weed control at 1000 g/ha [1]: 40%
pest or weed control at 1000 g/ha [2]: 100%
pest or weed control at 1000 g/ha [3]: 10%
pest or weed control at 1000 g/ha [4]: 100%
pest or weed control at 1000 g/ha [5]: 50%
pest or weed control at 1000 g/ha [6]: 70%
pest or weed control at 1000 g/ha [7]: 20%
pest or weed control at 1000 g/ha [8]: 50%
pest or weed control at 1000 g/ha [9]: 10%
pest or weed control at 1000 g/ha [10]: 80%
pest or weed control at 1000 g/ha [11]: 30%
pest or weed control at 1000 g/ha [12]: 100%

COC(=O)c1nc(C2CC2)nc(NCC(O)c2ccccc2)c1Cl (stereo not drawn) [Compound 4-257, 5-Chloro-2-cyclopropyl-4-(2-hydroxy-2-phenyl-ethylamino)-6-methoxycarbonyl-pyrimidine]
pest or weed control at 1000 g/ha [1]: 70%
pest or weed control at 1000 g/ha [2]: 100%
pest or weed control at 1000 g/ha [3]: 60%
pest or weed control at 1000 g/ha [4]: 90%
pest or weed control at 1000 g/ha [5]: 80%
pest or weed control at 1000 g/ha [6]: 100%
pest or weed control at 1000 g/ha [7]: 60%
pest or weed control at 1000 g/ha [8]: 100%
pest or weed control at 1000 g/ha [9]: 40%
pest or weed control at 1000 g/ha [10]: 90%
pest or weed control at 1000 g/ha [11]: 80%
pest or weed control at 1000 g/ha [12]: 100%

COC(=O)c1nc(C2CC2)nc(NCC(O)c2cccc(O)c2)c1Cl (stereo not drawn) [Compound 4-258, 5-Chloro-2-cyclopropyl-4-[2-hydroxy-2-(3-hydroxyphenyl)-ethylamino]-6-methoxycarbonyl-pyrimidine]
pest or weed control at 1000 g/ha [1]: 60%
pest or weed control at 1000 g/ha [2]: 100%
pest or weed control at 1000 g/ha [3]: 30%
pest or weed control at 1000 g/ha [4]: 80%
pest or weed control at 1000 g/ha [5]: 70%
pest or weed control at 1000 g/ha [6]: 90%
pest or weed control at 1000 g/ha [7]: 30%
pest or weed control at 1000 g/ha [8]: 100%
pest or weed control at 1000 g/ha [9]: 30%
pest or weed control at 1000 g/ha [10]: 100%
pest or weed control at 1000 g/ha [11]: 40%
pest or weed control at 1000 g/ha [12]: 100%

COC(=O)c1nc(C2CC2)nc(NCC(O)c2ccc(O)cc2)c1Cl (stereo not drawn) [Compound 4-259, 5-Chloro-2-cyclopropyl-4-[2-hydroxy-2-(4-hydroxyphenyl)-ethylamino]-6-methoxycarbonyl-pyrimidine]
pest or weed control at 1000 g/ha [1]: 30%
pest or weed control at 1000 g/ha [2]: 100%
pest or weed control at 1000 g/ha [3]: 20%
pest or weed control at 1000 g/ha [4]: 80%
pest or weed control at 1000 g/ha [5]: 80%
pest or weed control at 1000 g/ha [6]: 70%
pest or weed control at 1000 g/ha [7]: 30%
pest or weed control at 1000 g/ha [8]: 100%
pest or weed control at 1000 g/ha [9]: 10%
pest or weed control at 1000 g/ha [10]: 90%
pest or weed control at 1000 g/ha [11]: 30%
pest or weed control at 1000 g/ha [12]: 100%

COC(=O)c1nc(C2CC2)nc(NCCNc2ccccc2)c1Cl [Compound 4-260, 5-Chloro-2-cyclopropyl-6-methoxycarbonyl-4-[2-(phenylamino)-ethylamino)-pyrimidine]
pest or weed control at 1000 g/ha [1]: 40%
pest or weed control at 1000 g/ha [2]: 100%
pest or weed control at 1000 g/ha [3]: 20%
pest or weed control at 1000 g/ha [4]: 80%
pest or weed control at 1000 g/ha [5]: 60%
pest or weed control at 1000 g/ha [6]: 100%
pest or weed control at 1000 g/ha [7]: 20%
pest or weed control at 1000 g/ha [8]: 100%
pest or weed control at 1000 g/ha [9]: 10%
pest or weed control at 1000 g/ha [10]: 90%
pest or weed control at 1000 g/ha [11]: 20%
pest or weed control at 1000 g/ha [12]: 90%

COC(=O)c1nc(C2CC2)nc(NCCSCc2ccccc2)c1Cl [Compound 4-262, 5-Chloro-2-cyclopropyl-6-methoxycarbonyl-4-[2-(phenylmethyl-thio)ethylamino]-pyrimidine]
pest or weed control at 1000 g/ha [1]: 10%
pest or weed control at 1000 g/ha [2]: 80%
pest or weed control at 1000 g/ha [3]: 10%
pest or weed control at 1000 g/ha [4]: 60%
pest or weed control at 1000 g/ha [5]: 30%
pest or weed control at 1000 g/ha [6]: 60%
pest or weed control at 1000 g/ha [7]: 0%
pest or weed control at 1000 g/ha [8]: 40%
pest or weed control at 1000 g/ha [9]: 0%
pest or weed control at 1000 g/ha [10]: 10%
pest or weed control at 1000 g/ha [11]: 0%
pest or weed control at 1000 g/ha [12]: 50%

COC(=O)c1nc(C2CC2)nc(NCCSCc2c(Cl)cccc2Cl)c1Cl [Compound 4-263, 5-Chloro-2-cyclopropyl-4-{2-[(2,6-dichloro-phenyl)methylthio]-ethylamino}-6-methoxycarbonyl-pyrimidine]
pest or weed control at 1000 g/ha [1]: 0%
pest or weed control at 1000 g/ha [2]: 90%
pest or weed control at 1000 g/ha [3]: 0%
pest or weed control at 1000 g/ha [4]: 60%
pest or weed control at 1000 g/ha [5]: 30%
pest or weed control at 1000 g/ha [6]: 50%
pest or weed control at 1000 g/ha [7]: 0%
pest or weed control at 1000 g/ha [8]: 30%
pest or weed control at 1000 g/ha [9]: 0%
pest or weed control at 1000 g/ha [10]: 10%
pest or weed control at 1000 g/ha [11]: 0%
pest or weed control at 1000 g/ha [12]: 30%

COC(=O)c1nc(C2CC2)nc(NCC(O)COc2ccc(Cl)cc2)c1Cl (stereo not drawn) [Compound 4-264, 5-Chloro-4-[3-(4-chlorophenoxy)-2-hydroxy-propylamino]-2-cyclopropyl-6-methoxycarbonyl-pyrimidine]
pest or weed control at 1000 g/ha [1]: 50%
pest or weed control at 1000 g/ha [2]: 100%
pest or weed control at 1000 g/ha [3]: 30%
pest or weed control at 1000 g/ha [4]: 100%
pest or weed control at 1000 g/ha [5]: 70%
pest or weed control at 1000 g/ha [6]: 60%
pest or weed control at 1000 g/ha [7]: 60%
pest or weed control at 1000 g/ha [8]: 80%
pest or weed control at 1000 g/ha [9]: 40%
pest or weed control at 1000 g/ha [10]: 90%
pest or weed control at 1000 g/ha [11]: 80%
pest or weed control at 1000 g/ha [12]: 90%
